Legend:
Parameters in all cases: species or system E. coli
[1] = tested on: modified 16S RNA (5′-PS-A1492; 3′-phosphorothioate at A1492, C12O6 PEG mass tag); assay: ESI-FT-ICR MS ligand binding to 27-mer 16S RNA modified at A1492
Procedure: (§1) The following examples illustrate preferred embodiments of the present invention using mass spectrometry. Experiments were performed using a 7.0 Tesla Fourier transform ion cyclotron resonance (FT-ICR) mass spectrometer with an electrospray ionization source operating in the negative mode. A −3000 V difference was employed between the spray tip and the inlet capillary to generate the electrospray. Samples were introduced at a flow rate of 1.5 uL/min using a Harvard syringe pump and a 50 uL glass syringe. The desolvation of the electrospray droplets was aided by a flow of countercurrent gas at 1 L/min. Ions were accumulated for 1.0 sec in an intermediate hexapole ion storage region at 1.0×10^−5 mbar. Following transfer to the FT-ICR analysis cell, the image current was measured over a mass range of 500-4000 m/z. Typically, a total of 32 transients containing 512 kbytes were summed prior to Fourier transformation. The m/z values were calibrated on the signal from the [M-5H^+]^5− charge state of the free RNA at 1726.509.
An aqueous solution containing 100 mM ammonium acetate buffer (pH 7.0), 33% isopropyl alcohol, gentamicin (1 μM), 16S RNA (5 μM) and a modified 16S RNA (5.5 μM) was prepared. […] The peaks from the complexes formed from the lowest mass form of gentamicin were integrated and ion abundances determined. Fractions of 16S+genta and 5′-PS-A1492+genta complexes were determined to be 0.121 and 0.118±0.01% for the free 16S RNA and 5′-PS-A1492 RNA, respectively.
An aqueous solution containing 100 mM ammonium acetate buffer (pH 7.0), 33% isopropyl alcohol, ribostamycin (1 μM), 16S RNA (5 μM) and a modified 16S RNA (5.5 μM) was prepared. […] The peaks from the complexes formed between ribostamycin and the RNA were integrated and ion abundances determined. Fractions of 16S+ribost and 5′-PS-A1492+ribost complexes were determined to be 0.101 and 0.082±0.005% for the free 16S RNA and 5′-PS-A1492 RNA, respectively.

[2] = tested on: modified 16S RNA (5IU1495; 5-iodouridine at position U1495, PEG-6 chain at 5′-hydroxyl); assay: ESI-FT-ICR MS ligand binding to 27-mer 16S RNA modified at U1495; conditions: Example 3: ribostamycin 2.5 μM
Procedure: as §1, with “The m/z values were calibrated on the signal from the [M-5H^+]^5− charge state of the free RNA at 1726.509.” left out
An aqueous solution containing 50 mM ammonium acetate buffer (pH 7.0), 33% isopropyl alcohol, ribostamycin (2.5 μM), 16S RNA (2.5 μM) and a modified 16S RNA (2.5 μM) was prepared. […] The peaks were integrated and ion abundances determined. Fractions of 16S+ribost and 5IU1495+ribost complexes were determined to be 67.6% and 29.9±1% for the free 16S RNA and 5IU1495 RNA, respectively.

[3] = tested on: modified 16S RNA (5IU1406; 5-iodouridine at position U1406); assay: ESI-FT-ICR MS ligand binding to 27-mer 16S RNA modified at U1406; conditions: Example 2: gentamicin 2 μM
Procedure: as §1
(§2) An aqueous solution containing 100 mM ammonium acetate buffer (pH 7.0), 33% isopropyl alcohol, gentamicin (2 μM), 16S RNA (2.5 μM) and a modified 16S RNA (2.5 μM) was prepared. […] The peaks were integrated and ion abundances determined. Fractions of 16S+genta and 5IU1406+genta complexes were determined to be 66.8% and 28.1±1% for the free 16S RNA and 5IU1406 RNA, respectively.

[4] = tested on: modified 16S RNA (5IUtetra; 5-iodouridine at position 13 in the UUCG tetraloop); assay: ESI-FT-ICR MS ligand binding to 27-mer 16S RNA modified at the tetraloop
Procedure: as §1, with “The m/z values were calibrated on the signal from the [M-5H^+]^5− charge state of the free RNA at 1726.509.” left out
as §2, with “μM, present in three forms),” for “μM),”, “5IUtetra+genta” for “5IU1406+genta”, “70.4%” for “66.8%”, “68.2±1%” for “28.1±1%”, “5IUtetraRNA,” for “5IU1406 RNA,”

| Compound | Amount of 5′-PS-A1492+ribost as % of the amount of 16S+ribost ([1]; Example 7: ribostamycin 1 μM) | Amount of 5IU1495+ribost as % of the amount of 16S+ribost [2] | Fraction of 5IU1495+ribost complex ([2]; 16S RNA 2.5 μM with 5IU1495 RNA 2.5 μM, 50 mM ammonium acetate pH 7.0, 33% isopropyl alcohol) | Amount of 5′-PS-A1492+genta as % of the amount of 16S+genta ([1]; Example 6: gentamicin 1 μM) | Fraction of 5′-PS-A1492+genta complex ([1]; Example 6: gentamicin 1 μM (lowest mass form integrated), 16S RNA 5 μM with 5′-PS-A1492 RNA 5.5 μM, 100 mM ammonium acetate pH 7.0, 33% isopropyl alcohol) | Amount of 5IU1406+genta as % of the amount of 16S+genta [3] | Fraction of 5IU1406+genta complex ([3]; 16S RNA 2.5 μM with 5IU1406 RNA 2.5 μM, 100 mM ammonium acetate pH 7.0, 33% isopropyl alcohol) | Effect of 5-iodouridine residue in the tetraloop on the abundance of the gentamicin-RNA complex ([4]; Example 1: 5IUtetra versus 16S RNA) | Fraction of 5IUtetra+genta complex ([4]; Example 1: gentamicin 2 μM (three forms), 16S RNA 2.5 μM with 5IUtetra RNA 2.5 μM, 100 mM ammonium acetate pH 7.0, 33% isopropyl alcohol) |
| --- | --- | --- | --- | --- | --- | --- | --- | --- | --- |
| NC[C@H]1O[C@H](O[C@H]2[C@H](O[C@@H]3O[C@H](CO)[C@@H](O)[C@H]3O)[C@@H](O)[C@H](N)C[C@@H]2N)[C@H](N)[C@@H](O)[C@@H]1O [ribostamycin] | 80% | 44% | 29.9±1% | – | – | – | – | – | – |
| gentamicin | – | – | – | 97% | 0.118±0.01 fraction (0–1) | 42% | 28.1±1% | no effect | 68.2±1% |
